The results in this text go back to patent US10327423B2, “Antimicrobial compounds and compositions, and uses thereof” (Akeso Biomedical, Inc., priority 2014, dated 2019).

Assay [1] relates to EPEC-AcsrA. Briefly: BioFlux system, disruption of a mature biofilm. The following applies: 20 hours. Type of assay: cell-based, Escherichia coli. As to the method:
The mature biofilm was treated with FeTyr at concentrations of 100, 150 and 200 μM for 20 hours and compared to a control biofilm that had just been treated with LB medium 30% v/v. […] Mature biofilm was treated with FeDOPA at a concentration of 100 μM for 20 hours and compared to a control biofilm that had just been treated with LB medium 30% v/v.

Assay [2] deals with Enteropathogenic E. coli (EPEC) strain E2348/69. Briefly: Growth curve of antibiotic resistant EPEC with gentamicin and Fe complex. In kind it is cell-based, Escherichia coli. As to the method:
The impact on the growth curve of antibiotic resistant Enteropathogenic E. coli (EPEC) strain E2348/69 (genotype Wild Type EPEC O17:H6) when grown in the presence of (i) gentamicin (1.25 μM), (ii) Fe-Tyr (100 μM), (iii) gentamicin (1.25 μM) and Fe-Tyr (1.25 μM), and (iv) a control with no gentamicin or Fe-Tyr present was determined.
The impact on the growth curve of antibiotic resistant Enteropathogenic E. coli (EPEC) strain E2348/69 (genotype Wild Type EPEC O17:H6) when grown in the presence of a fixed concentration of gentamicin (1.25 μM) and an increasing concentration of FeQ versus the strain grown in the presence of only FeQ or only gentamicin, was determined.
The impact on the growth curve of antibiotic resistant Enteropathogenic E. coli (EPEC) strain E2348/69 (genotype Wild Type EPEC O17:H6) when grown in the presence of a fixed concentration of gentamicin (1.25 μM) and an increasing concentration of FeDOPA versus the strain grown in the presence of only FeDOPA or only gentamicin, was determined.

In assay [3] the test system is Enteropathogenic E. coli (EPEC) E2348/69. Briefly: Crystal violet assay of attachment to plastic wells. Type of assay: cell-based, Escherichia coli. The following applies: FeDOPA 68-250 μM; 48 hours at 37° C. The protocol:
Enteropathogenic E. coli (EPEC) E2348/69 were grown in wells for 48 hours at 37° C. in the presence of FeQ (100 μM), and in the absence of FeQ (as control). After 48 hours, the wells were washed in order to remove suspended cells. Crystal violet was then added to each well. The wells were then washed to remove excess dye. A mixture of acetone/ethanol was then added to the wells to re-suspend any cells attached to the plastic surface of the wells, and dissolve any dye present. The presence of dye in each well was then quantified by measuring the O.D. at 570 nm.
Enteropathogenic E. coli (EPEC) E2348/69 were grown in wells for 48 hours at 37° C. in the presence of FeDOPA (10-250 μM), and in the absence of FeDOPA (as control). After 48 hours, the wells were washed in order to remove suspended cells. Crystal violet was then added to each well. The wells were then washed to remove excess dye. A mixture of acetone/ethanol was then added to the wells to re-suspend any cells attached to the plastic surface of the wells, and dissolve any dye present. The presence of dye in each well was then quantified by measuring the O.D. at 570 nm.

Assay [4] can be described thus: Growth performance of broilers challenged with Campylobacter dirty litter at day 20. Type of assay: in vivo, chicken (Ross 308 male broilers). The following applies: treatment groups 3, 5, 6, 7 (FeQ) and 8 (FeTyr). The protocol: (§1) A study was performed to evaluate growth promotion and reduction of Campylobacter carriage using FeQ and FeTyr in Ross 308 male broilers with 7 treatment groups. Each treatment group comprised four replicates of 10 birds per pen (40 birds/treatment group and 4 pens of 10 birds/treatment group), and there were 2 control groups and 5 test groups. All the test groups and one of the control groups were exposed at day 20 of the trial to dirty litter, which tested positive for Campylobacter. This method was used to provide a more natural method to Campylobacter challenge the birds. Thus there was a positive control where one treatment group was challenged with Campylobacter and one negative control group where the birds were not challenged, and five treatment groups that were all challenged with Campylobacter. The total number of birds used in the 7 treatment groups was 280. Treatment group 1 was a negative control where birds just received the commercial feed, and were not challenged with dirty litter containing Campylobacter. Treatment group 2 was the positive control where the birds received the commercial feed, and were challenged with dirty litter containing Campylobacter at day 20. Treatment group 3 received 0.22 g/L of FeQ in their drinking water and 0.22 g/Kg FeQ in their feed during the entire trial, and was challenged with dirty litter containing Campylobacter at day 20. Treatment group 5 received 0.22 g/L of FeQ in their drinking water during the entire trial, and was challenged with dirty litter containing Campylobacter at day 20. Treatment group 6 received 0.22 g/kg FeQ in their feed during the entire trial, and was challenged with dirty litter containing Campylobacter at day 20. Treatment group 7 received 0.022 g/L FeQ in their drinking water during the entire trial, and was challenged with dirty litter containing Campylobacter at day 20. Treatment group 8 received 0.02 g/L FeTyr in their drinking water during the entire trial, and was challenged with dirty litter containing Campylobacter at day 20. The FeTyr was pre-dissolved in DMSO, and diluted to provide a solution of 0.02 g/L of FeTyr in water. (An additional treatment group 4 was terminated due to solubility issues.) […]
The feeding program is show in Table 4. […] All birds were weighed individually and feed weigh backs recorded per pen at day 0, 11, 21, 24 and 42 days.
In order to minimize risk of cross-contamination, standard industry biosecurity measures were used including: disinfecting boots, changing overshoes and gloves between pens/treatments, entering Campylobacter negative pens before entering Campylobacter positive pens, and leaving adjacent pens empty. Daily health, culls, and mortality were recorded. All bird weights were recorded at 0, 11, 21, 24, 33 and 42 days. […]

Assay [5] deals with EPEC-pgA^++. Briefly: Crystal violet assay of disruption of a mature biofilm. Type of assay: cell-based, Escherichia coli. As to conditions: FeTyr 100, 150 and 200 μM; 72 hours. The protocol:
A mature biofilm formed by EPEC-pgA^++ was treated with FeTyr for 24, 48 and 72 hours at FeTyr concentrations of 100 μM, 150 μM and 200 μM and the presence of the biofilm after these times was compared to an untreated biofilm (labeled “Control”) using a crystal violet assay. The color of the control wells was more intense in color at 72 hours than those that were treated with FeTyr at 100, 150 and 200 μM for 72 hours.

The test system of assay [6] is Campylobacter. Briefly: Campylobacter carriage in chickens (cfu/g of droppings and caeca samples). In kind it is in vivo. As to conditions: treatment groups 3, 5, 6, 7 (FeQ) and 8 (FeTyr), days 0-42; dirty litter challenge. As to the method: as §1, with “20.” for “20. Treatment group 7 received 0.022 g/L FeQ in their drinking water during the entire trial, and was challenged with dirty litter containing Campylobacter at day 20. Treatment group 8 received 0.02 g/L FeTyr in their drinking water during the entire trial, and was challenged with dirty litter containing Campylobacter at day 20. The FeTyr was pre-dissolved in DMSO, and diluted to provide a solution of 0.02 g/L of FeTyr in water. (An additional treatment group 4 was terminated due to solubility issues.)”
Prior to challenging the chickens with dirty litter containing Campylobacter at day 20, each pen was tested for Campylobacter using cloacal swabs. […] Samples were analyzed for blood chemistry, including analysis for alkaline phosphatase, aspartate amino transferase, alanine amino transferase, gamma-glutamyl transferase, lactate dehydrogenase, total protein, albumin, globulin, amylase and glucose.

The test system of assay [7] is Psuedomonas aeruginosa (PAO1N). Briefly: Growth (OD600) in LB with Amikacin, tolerance to antibiotic. The following applies: 34, 100, 200 and 340 μM of FeQ or FePhe; Amikacin 10 µg/ml; 17.5 hours at 37° C. Type of assay: cell-based, Pseudomonas aeruginosa. The protocol: (§2) To investigate effects upon antibiotic resistance, a laboratory strain of Psuedomonas aeruginosa (PAO1N) and a mixed population of clinical isolates (PAO Mixed) were incubated in Luria-Bertani (LB) media alone, or with different concentrations (34 μM, 100 μM, 200 μM and 340 μM) of FeQ or FePhe.
(§3) Each of the different media, bar one control, contained 10 µg/ml of the aminoglycoside antibiotic Amikacin.
(§4) 10 μl of the bacterial strains were added into each well of a 96-well micro-titer plate, before 290 μl of the relevant media was added to wells. Each different condition was repeated in sextuplicate.
(§5) The plate was incubated at 37° C. within a micro-titer plate reader for 17.5 hours, with the OD600 read every 30 minutes.

Assay [8] relates to mixed population of clinical isolates (PAO Mixed). The assay is described as above. As to conditions: 34, 100, 200 and 340 μM of FeQ or FePhe; Amikacin 10 µg/ml; 17.5 hours at 37° C. Type of assay: cell-based, Pseudomonas aeruginosa. The protocol:
as §2, §3, §4, §5

Entries after “also recorded” stand apart in the source; their conditions may differ.

In the case of `O=C1[O][Fe]23([NH]C1Cc1ccc(O)c(O)c1)([NH]C(Cc1ccc(O)c(O)c1)C(=O)[O]2)[NH]C(Cc1ccc(O)c(O)c1)C(=O)[O]3` [FeDOPA, a complex of L-DOPA with Fe III (3,4 dihydrophenylalanine)], the “dispersion of mature biofilm” value in assay [1] (FeDOPA 100 μM) is given as “dispersed the biofilm”. In addition, the “rate of growth relative to gentamicin alone” value in assay [2] (gentamicin 1.25 μM and FeDOPA 130, 160, 200 μM) is “inhibited”. For the same compound, the “attachment of EPEC cells to plastic well surface and biofilm formation (crystal violet, O.D. 570 nm)” value in assay [3] is “inhibited”.

For `O=C1[O][Fe]23([NH]C1Cc1ccc(O)cc1)([NH]C(Cc1ccc(O)cc1)C(=O)[O]2)[NH]C(Cc1ccc(O)cc1)C(=O)[O]3` [FeTyr, a complex of L-tyrosine with Fe III], in assay [1] (FeTyr 100, 150 and 200 μM), the “dispersion of mature biofilm” value is given as “biofilm dispersion increased”. In addition, the “rate of growth (growth curve)” value in assay [2] (Fe-Tyr 100 μM alone) is on record as “comparable to the control”. The “rate of growth relative to gentamicin alone” value in assay [2] (gentamicin 1.25 μM and Fe-Tyr 1.25 μM) is “loses its resistance; also recorded: inhibited”. In assay [4], the “ABW at day 42 versus positive control (challenged, untreated)” value is on record as “performed better than the positive control” and the “MFCR at day 42 versus positive control (challenged, untreated)” value is reported as “performed better than the positive control”. For the same compound, the “optical absorbance of crystal violet at 570 nm of remaining mature biofilm versus untreated” value in assay [5] is reported as “significantly lower optical absorbance”. For the same compound, in assay [6], the “average Campylobacter cfu/g of caeca samples at day 42 versus positive control” value is listed as “lower levels of Campylobacter in their caeca; also recorded: performed better than the positive control”.

Turning to “A complex of L-phenylalanine with Fe III [Fe-Phe]”, the “tolerance to the aminoglycoside Amikacin (OD600 growth)” value in assay [7] and in assay [8] was “reducing tolerance” in each case.
